Laboratory results: article PMC9226124, “Macrocycle-stabilization of its interaction with 14-3-3 increases plasma membrane localization and activity of CFTR” (Nature Communications, 2022)

How the values were obtained:
[1] = biological target: T1, FITC-labeled CFTRpS753pS768 peptide (no 14-3-3) (Homo sapiens, UniProt P13569); assay: Dose-response FP control assay in the absence of 14-3-3; assay type: binding; conditions: No 14-3-3
T1 construct: made in house; host or cells: synthetic peptide
Method: The 14-3-3β concentration used for the FP screening assay was 10 μM (dashed line). c HTS FP assay of the Cyclenium library. The samples contain 100 nM of FITC-CFTR_pS753pS768 peptide, 10 μM 14-3-3β, and 50 μM compound. FC-A (100 µM) was added as a positive control and DMSO as the negative control. Hit compounds are defined as a polarization increase which is higher than 20% of the response of FC-A. Red squares are compounds that appeared positive in the negative control without 14-3-3. […] Background polarization was subtracted from all values, n = 3 technical replicates. Compounds selected for further analysis are indicated with an asterisk. e Polarization in the absence of 14-3-3. […] Source data are provided as a Source Data file.
The FITC-labeled peptides were dissolved in FP buffer (10 mM HEPES pH 7.4, 150 mM NaCl, 0.1% Tween20, 1 mg/mL BSA) to a final concentration of 100 nM or 10 nM. For the dose-response assays, a 14-3-3β concentration of 10 μM was used while titrating the compounds in a two-times dilution series and, for the other assays, a dilution series of 14-3-3β was made with constant concentration of compound. The dilution series were made in 384 Corning Black Round Bottom well plates and their polarization was measured with a Tecan Infinite F500 plate reader (ex. = 485 nm, em. = 535 nm). The method of fitting of the curves was: “log(agonist) vs. response – Variable slope (four parameters)” from GraphPad Prism. The equation is Y = Bottom + (Top-Bottom)/(1 + 10^((LogEC50-X)*HillSlope)).

[2] = biological target: T2, 14-3-3β/CFTRpS753pS768 complex (Homo sapiens, UniProt P13569+P31946); assay: FP assay, 14-3-3β titration at constant compound concentration (apparent KD); assay type: binding; conditions: 100 μM compound, vs […] μM without compound
T2 construct: His6 (cleaved yes); made in house; peptide synthetic
Method: FC-A (100 µM) was added as a positive control and DMSO as the negative control. […] Background polarization was subtracted from all values, n = 3 technical replicates. […] Source data are provided as a Source Data file. […]
The FITC-labeled peptides were dissolved in FP buffer (10 mM HEPES pH 7.4, 150 mM NaCl, 0.1% Tween20, 1 mg/mL BSA) to a final concentration of 100 nM or 10 nM. […] The dilution series were made in 384 Corning Black Round Bottom well plates and their polarization was measured with a Tecan Infinite F500 plate reader (ex. = 485 nm, em. = 535 nm). The method of fitting of the curves was: “log(agonist) vs. response – Variable slope (four parameters)” from GraphPad Prism. The equation is Y = Bottom + (Top-Bottom)/(1 + 10^((LogEC50-X)*HillSlope)).
from the hit validation library.
f the compound, 100 µM FC-A, or both compound and FC-A, 100 µM each. Background polarization was subtracted f
rom all values, n=3 technical replicates.
Source data are provided as a Source Data file.

T1 sequence (P13569 747-774 limits assumed): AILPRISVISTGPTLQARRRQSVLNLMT
T2 sequence (P31946 whole entry): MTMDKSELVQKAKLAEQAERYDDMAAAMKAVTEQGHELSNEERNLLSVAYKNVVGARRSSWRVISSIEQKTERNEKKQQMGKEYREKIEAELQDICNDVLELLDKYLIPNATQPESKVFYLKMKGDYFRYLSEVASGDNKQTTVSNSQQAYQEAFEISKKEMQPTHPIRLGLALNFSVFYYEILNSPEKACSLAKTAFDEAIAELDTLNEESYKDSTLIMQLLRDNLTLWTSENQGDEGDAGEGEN

| FP signal ([1]; compound 476.8 pM) | FP signal ([1]; compound 953.7 pM) | FP signal ([1]; compound 1.90735e-9 M) | FP signal ([1]; compound 3.8147e-9 M) | FP signal ([1]; compound 7.6294e-9 M) | FP signal ([1]; compound 1.52588e-8 M) | FP signal ([1]; compound 3.05176e-8 M) | FP signal ([1]; compound 6.10352e-8 M) | FP signal ([1]; compound 1.2207e-7 M) | FP signal ([1]; compound 2.44141e-7 M) | FP signal ([1]; compound 4.88281e-7 M) | FP signal ([1]; compound 9.76563e-7 M) | FP signal ([1]; compound 1.95313e-6 M) | FP signal ([1]; compound 3.90625e-6 M) | FP signal ([1]; compound 7.8125e-6 M) | FP signal ([1]; compound 1.5625e-5 M) | FP signal ([1]; compound 3.125e-5 M) | FP signal ([1]; compound 6.25e-5 M) | FP signal ([1]; compound 0.000125 M) | FP signal ([1]; compound 0.00025 M) | Compound | other results |
| --- | --- | --- | --- | --- | --- | --- | --- | --- | --- | --- | --- | --- | --- | --- | --- | --- | --- | --- | --- | --- | --- |
| 4 | 5 | 5 | 7 | 4 | 7 | 6 | 5 | 5 | 7 | 7 | 7 | 6 | 12 | 27 | 52 | 122 | 193 | 244 | 263 | N=C(N)NCCCC1NCc2ccccc2Sc2ccccc2CNC(=O)C(Cc2ccc(O)cc2)NC(=O)C(CCCN)NC1=O (stereo not drawn) [CY007424] | FP signal ([1]; compound 0.0005 M): 257; FP signal ([1]; compound 0.001 M): 271; stabilization factor (increase of apparent affinity of CFTR peptide to 14-3-3) [2]: more than 300 x |
| 6 | 6 | 5 | 4 | 7 | 6 | 5 | 4 | 4 | 5 | 6 | 6 | 5 | 8 | 9 | 16 | 30 | 55 | 97 | 149 | NCCCCC1NCc2ccccc2Sc2ccccc2CNC(=O)C(Cc2cccc(Cl)c2)NC(=O)C(Cc2ccc(O)cc2)NC1=O (stereo not drawn) [CY007288] | FP signal ([1]; compound 0.0005 M): 194; FP signal ([1]; compound 0.001 M): 224 |
